From ChEMBL document CHEMBL2069271, “Design, synthesis, stereochemistry and antioxidant properties of various 7-alkylated 2,4-diaryl-3-azabicyclo[3.3.1]nonan-9-ones” (Bioorg Med Chem Lett, 2012)

What was measured:
[1] = test system: Radical scavenging activity; experiment: Antioxidant activity assessed as inhibition of DPPH radical generation; format: functional
[2] = Oral bioavailability in rat at 500 mg/kg; format: ADME, organism-based; settings: in vivo
[3] = test system: Radical scavenging activity; experiment: Antioxidant activity assessed as inhibition of DPPH radical generation relative to alpha-tocopherol; format: functional; parameters: scale not given: the % may be the effect or the level left

Row | Structure (SMILES) | IC50 [1] [µM] | bioavailability [2] [%] | Activity [3] [%]
1 | Cc1c(C)c2c(c(C)c1O)CC[C@@](C)(CCC[C@H](C)CCC[C@H](C)CCCC(C)C)O2 [ALPHA-TOCOPHEROL] | 59 | – | –
2 | COc1cc(/C=C/C(=O)CC(=O)/C=C/c2ccc(O)c(OC)c2)ccc1O [CURCUMIN] | 35.1 | 1 | –
3 | COc1ccc(C2NC(c3ccc(OC)c(OC)c3)C3CC(C)CC2C3=O)cc1OC (stereo unspecified) | – | – | 20
4 | COc1ccc(OC)c(C2NC(c3cc(OC)ccc3OC)C3CC(C)CC2C3=O)c1 (stereo unspecified) | – | – | 20
5 | COc1cc(C2NC(c3cc(OC)c(OC)c(OC)c3)C3CC(C)CC2C3=O)cc(OC)c1OC (stereo unspecified) | – | – | 20
